Where only a bound is given, the exact number is not on record here.

The first experiment deals with T1, Human Recombinant Matriptase 2 (Homo sapiens, UniProt Q8IU80).
T1 construct: made in house
T1 sequence (Q8IU80 1-811): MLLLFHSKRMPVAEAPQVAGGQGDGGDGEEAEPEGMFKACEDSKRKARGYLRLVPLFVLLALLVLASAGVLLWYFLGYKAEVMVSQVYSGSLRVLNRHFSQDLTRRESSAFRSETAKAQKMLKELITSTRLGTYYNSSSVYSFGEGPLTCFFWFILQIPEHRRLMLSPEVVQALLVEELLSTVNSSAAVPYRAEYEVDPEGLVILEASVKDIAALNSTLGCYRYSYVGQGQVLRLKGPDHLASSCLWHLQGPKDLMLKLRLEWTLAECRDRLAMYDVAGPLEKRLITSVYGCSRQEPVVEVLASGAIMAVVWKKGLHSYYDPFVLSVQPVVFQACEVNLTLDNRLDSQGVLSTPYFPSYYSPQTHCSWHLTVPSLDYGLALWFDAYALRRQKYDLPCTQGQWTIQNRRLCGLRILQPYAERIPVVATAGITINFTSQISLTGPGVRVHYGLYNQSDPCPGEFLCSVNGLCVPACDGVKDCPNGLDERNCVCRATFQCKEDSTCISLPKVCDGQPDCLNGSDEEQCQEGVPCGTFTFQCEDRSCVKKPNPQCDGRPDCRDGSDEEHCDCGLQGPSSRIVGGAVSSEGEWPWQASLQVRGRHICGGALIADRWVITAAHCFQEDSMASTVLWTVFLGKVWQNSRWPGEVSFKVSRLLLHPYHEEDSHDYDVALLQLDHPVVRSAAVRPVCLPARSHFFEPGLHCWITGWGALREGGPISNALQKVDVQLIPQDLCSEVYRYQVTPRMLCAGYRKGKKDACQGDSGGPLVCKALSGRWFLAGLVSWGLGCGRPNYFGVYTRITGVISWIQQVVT
The experiment can be described thus: Matriptase 2 inhibition, fluorescence based assay (Method I). Conditions: Table A; Ki of Matriptase-2; read-out: Mat-2 Ki. The format is biochemical. Summed up:
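Fluorogenic readout (Ex 360/Em 480 nm) taken 60 min after adding 62 μM Boc-Gln-Ala-Arg-AMC, following 30-min enzyme–compound preincubation at 25 °C. Conditions: 3.5 nM in-house enzyme, pH 7.5 Tris/NaCl/gelatin buffer, 1% DMSO; percent inhibition versus concentration fitted by variable-slope sigmoidal regression.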
As to `CCN1CCC(COC(=O)c2cc3ccc(CN)nc3n2Cc2cc(NS(=O)(=O)Cc3ccccc3)cc3ccccc23)CC1` [Compound 13, (1-ethylpiperidin-4-yl)-methyl 6-(aminomethyl)-1-{[3-(phenylmethane-sulfonamido)naphthalen-1-yl]methyl}-1H-pyr-rolo[2,3-b]pyridine-2-carboxylate], the inhibition constant (Ki) is not above 100 nM.

On to `NCc1ccc2cc(C(=O)OC[C@H]3COCCN3)n(Cc3cc(NS(=O)(=O)Cc4ccsc4)cc4ccccc34)c2n1` [Compound 158, [(3R)-morpholin-3-yl]-methyl 6-(aminometh-yl)-1-({3-[(thiophen-3-yl)methanesulfonamido]-naphthalen-1-yl}meth-yl)-1H-pyrrolo[2,3-b]-pyridine-2-carboxylate], for which the Ki was not above 100 nM.

With `COCCN1CCC(COC(=O)c2cc3ccc(CN)nc3n2Cc2cc(NS(=O)(=O)Cc3c(C)cccc3C)cc3ccccc23)CC1` [Compound 192, [1-(2-methoxyethyl)-piperidin-4-yl]methyl 6-(aminomethyl)-1-({3-[(2,6-dimethylphenyl)-methanesulfonamido]-naphthalen-1-yl}meth-yl)-1H-pyrrolo[2,3-b]-pyridine-2-carboxylate], the inhibition constant (Ki) is not above 100 nM.

Turning to `NCc1ccc2cc(C(=O)OCc3cn(CC(F)(F)F)cn3)n(Cc3cc(NS(=O)(=O)Cc4ccccc4)cc4ccccc34)c2n1` [Compound 101, [1-(2,2,2-trifluoroethyl)-1H-imidazol-4-yl]methyl 6-(aminomethyl)-1-{[3-(phenylmethanesulfon-amido)naphthalen-1-yl]-methyl}-1H-pyrrolo[2,3-b]pyridine-2-carboxylate], the inhibitory constant (Ki) lay in the range of 100 to 500 nM.

Turning to `NCc1ccc2cc(C(=O)OCCN3CCS(=O)(=O)CC3)n(Cc3cc(NS(=O)(=O)Cc4ccccc4)cc4ccccc34)c2n1` [Compound 77, 2-(1,1-dioxo-1-thio-morpholin-4-yl)ethyl 6-(aminomethyl)-1-{[3-(phenylmethanesulfon-amido)naphthalen-1-yl]-methyl}-1H-pyrrolo[2,3-b]pyridine-2-carboxylate], the Ki is not above 100 nM.

As to `NCc1ccc2cc(C(=O)OCCN3CCOC3=O)n(Cc3cc(NS(=O)(=O)Cc4ccccc4)cc4ccccc34)c2n1` [Compound 130], the inhibitory constant (Ki) was in the range of 100 to 500 nM.

On to `CN1CCC(CNC(=O)c2cc3ccc(CN)nc3n2Cc2cc(NS(=O)(=O)Cc3ccsc3)cc3ccccc23)CC1` [Compound 6, 6-(aminomethyl)-N-((1-methylpiperidin-4-yl)methyl)-1-((3-((thiophen-3-ylmethyl)sulfonamido)naphthalen-1-yl)methyl)-1H-pyrrolo[2,3-b]pyridine-2-carboxamide], for which the inhibitory constant (Ki) was not above 100 nM.

Regarding `NCc1ccc2cc(C(=O)OCC[C@H]3CCCCN3)n(Cc3cc(NS(=O)(=O)Cc4ccccc4)cc4ccccc34)c2n1` (racemic) [Compound 32, 2-(piperidin-2-yl)ethyl 6-(aminomethyl)-1-{[3-(phenylmethanesulfon-amido)naphthalen-1-yl]-methyl}-1H-pyrrolo[2,3-b]pyridine-2-carboxylate], the inhibitory constant (Ki) is not above 100 nM.

With `COC(=O)NCCOC(=O)c1cc2ccc(CN)nc2n1Cc1cc(NS(=O)(=O)Cc2ccccc2)cc2ccccc12` [Compound 75, 2-[(methoxycarbonyl)-amino]ethyl 6-(amino-methyl)-1-{[3-(phenyl-methanesulfonamido)-naphthalen-1-yl]methyl}-1H-pyrrolo[2,3-b]pyr-idine-2-carboxylate], the Ki was not above 100 nM.

In the case of `NCc1ccc2cc(C(=O)O)n(Cc3cc(NS(=O)(=O)CC[C@@H]4CCCN4)cc4ccccc34)c2n1` [Compound 1, (S)-6-(aminomethyl)-1-((3-((2-(pyrrolidin-2-yl)ethyl)sulfonamido)naphthalen-1-yl)methyl)-1H-pyrrolo[2,3-b]pyridine-2-carboxylic acid], the Ki was not above 100 nM.

Regarding `Cc1cccc(C)c1CS(=O)(=O)Nc1cc(Cn2c(C(=O)OCc3nccn3C)cc3ccc(CN)nc32)c2ccccc2c1` [Compound 191, (1-methyl-1H-imidazol-2-yl)methyl 6-(amino-methyl)-1-({3-[(2,6-dimethylphenyl)meth-anesulfonamido]naph-thalen-1-yl}methyl)-1H-pyrrolo[2,3-b]pyridine-2-carboxylate], the Ki is not above 100 nM.

In the case of `NCc1ccc2cc(C(=O)OCCN3CCOCC3)n(Cc3cc(NS(=O)(=O)Cc4cccs4)cc4ccccc34)c2n1` [Compound 151, 2-(morpholin-4-yl)ethyl 6-(aminomethyl)-1-({3-[(thiophen-2-yl)methane-sulfonamido]naphthalen-1-yl}methyl)-1H-pyr-rolo[2,3-b]pyridine-2-carboxylate], the inhibition constant (Ki) is not above 100 nM.

Take `CNCCNC(=O)c1cc2ccc(CN)nc2n1Cc1cc(NS(=O)(=O)Cc2ccccc2)cc2ccccc12` [Compound 76, 6-(aminomethyl)-N-[2-(methylamino)ethyl]-1-{[3-(phenylmethane-sulfonamido)naphthalen-1-yl]methyl}-1H-pyr-rolo[2,3-b]pyridine-2-carboxamide]: the inhibitory constant (Ki) was not above 100 nM.

Staying with this experiment, now noted: Table A; Ki of Matriptase-2 given as class symbols; read-out: Mat-2 Ki.
As for `NCc1ccc2cc(C(=O)O)n(Cc3cc(NS(=O)(=O)[C@H]4CCOC4)cc4ccccc34)c2n1` [Compound 280, 6-(aminomethyl)-1-({3-[(3S)-oxolane-3-sulfon-amido]naphthalen-1-yl}-methyl)-1H-pyrrolo[2,3-b]pyridine-2-carboxylic acid], the Ki fell in the range of 500 to 3000 nM.

With `CN1CCC(COC(=O)c2cc3ccc(CN)nc3n2Cc2cc(NS(=O)(=O)Cc3ccccc3C(F)(F)F)cc3ccccc23)CC1` [Compound 209, (1-methylpiperidin-4-yl)-methyl 6-(aminomethyl)-1-[(3-{[2-(trifluorometh-yl)phenyl]methanesul-fonamido}naphthalen-1-yl)methyl]-1H-pyrrolo-[2,3-b]pyridine-2-car-boxylate], the inhibitory constant (Ki) is not above 100 nM.

Take `CN(C)CCOC(=O)c1cc2ccc(CN)nc2n1Cc1cc(NS(=O)(=O)CC[C@@H]2CCCN2)cc2ccccc12` [Compound 284, 2-(dimethylamino)ethyl 6-(aminomethyl)-1-[(3-{2-[(2S)-pyrrolidin-2-yl]ethanesulfonamido}-naphthalen-1-yl)methyl]-1H-pyrrolo[2,3-b]pyr-idine-2-carboxylate]: the Ki was in the range of 500 to 3000 nM.

Turning to `CN1CCC(COC(=O)c2cc3ccc(CN)nc3n2Cc2cc(NS(=O)(=O)Cc3ccccc3F)cc3ccccc23)CC1` [Compound 205, (1-methylpiperidin-4-yl)methyl 6-(aminometh-yl)-1-({3-[(2-fluorophen-yl)methanesulfonamido]-naphthalen-1-yl}methyl)-1H-pyrrolo[2,3-b]pyr-idine-2-carboxylate], the inhibitory constant (Ki) was not above 100 nM.

As to `CN(C)CCCCOC(=O)c1cc2ccc(CN)cc2n1Cc1cc(NS(=O)(=O)Cc2ccccc2)cc2ccccc12` [Compound 384, 4-(dimethylamino)butyl 6-(aminomethyl)-1-{[3-(phenylmethanesulfon-amido)naphthalen-1-yl]-methyl}-1H-indole-2-carboxylate], the inhibitory constant (Ki) fell in the range of 100 to 500 nM.

As for `C[C@H]1CCC(C)(C)N1C(=O)Nc1cc(Cn2c(C(=O)O)cc3ccc(CN)nc32)c2ccccc2c1` (racemic) [Compound 302, rac-6-(aminomethyl)-1-[(3-{[(SR)-2,2,5-trimeth-ylpyrrolidine-1-carbon-yl]amino}naphthalen-1-yl)methyl]-1H-pyrrolo-[2,3-b]pyridine-2-carbox-ylic acid], the inhibition constant (Ki) fell in the range of 500 to 3000 nM.

Turning to `COCCN1CCN(C(=O)Nc2cc(Cn3c(C(N)=O)cc4ccc(CN)nc43)c3ccccc3c2)CC1` [Compound 344, 6-(aminomethyl)-1-((3-(4-(2-methoxyethyl)piperazine-1-carboxamido)naphthalen-1-yl)methyl)-1H-pyrrolo[2,3-b]pyridine-2-carboxamide], the inhibition constant Ki is 100 to 500 nM.

For `NCc1ccc2cc(C(=O)O)n(Cc3cc(NS(=O)(=O)Cc4ccoc4)cc4ccccc34)c2n1` [Compound 220, 6-(aminomethyl)-1-({3-[(furan-3-yl)methane-sulfonamido]naphthalen-1-yl}methyl)-1H-pyr-rolo[2,3-b]pyridine-2-carboxylic acid], the inhibition constant Ki lay in the range of 100 to 500 nM.

Staying with this experiment, now noted: Table B; Human Recombinant Matriptase 2, 3.5 nM enzyme, 62 μM substrate, 30 mins preincubation; read-out: Mean Ki.
For the molecule `CN1CCC(COC(=O)c2cc3ccc(CN)nc3n2Cc2cc(NS(=O)(=O)Cc3ccsc3)cc3c2CCCC3)CC1=O` (stereo not shown) [Compound 2.22], the Ki is not above 100 nM.

For `CN1CCC(COC(=O)c2cc3ccc(CN)nc3n2Cc2cc(NS(=O)(=O)Cc3ccsc3)cc3ccccc23)CC1=O` (stereo not shown) [Compound 2.32], the Ki was not above 100 nM.

In the case of `CN1CCC(CCOC(=O)c2cc3ccc(CN)nc3n2Cc2cc(NS(=O)(=O)Cc3ccccc3)cc3c2CCCC3)CC1=O` (stereo not shown) [Compound 2.1], the Ki fell in the range of 100 to 500 nM.

Turning to `CN1CCC(COC(=O)c2cc3ccc(CN)nc3n2Cc2cccn3nccc23)CC1` [Compound 2.26], the inhibitory constant (Ki) is more than 3000 nM.

The values above are taken from patent US20240400553A1, “AMINE BASED MATRIPTASE 2 INHIBITORS AND USES THEREOF” (Disc Medicine, Inc., priority 2023, published 2024).
